Laboratory results from patent US20210023089A1, “Compositions Useful for Treating Herpes Simplex Keratitis, and Methods Using Same” (priority 2013, published 2021).

What was measured:
[1] = system: cleaved caspase-3; assay: Cleaved caspase-3 immunofluorescence in HSV-1 infected explanted human corneas; format: cell-based; settings: 10 μM, 48 hpi, vs mock-treated
Experimental: Human corneas were obtained from the Lions Eye Bank of Delaware Valley. Rabbit corneas were excised from intact fresh eyeballs of young (8-12 weeks) albino rabbits (Pel-Freez Biologicals, Rogers, Ark.). Protocol (Alekseev et al., 2012, J Vis Exp 69:e3631) for ex vivo corneal culture, infection, and treatment was followed closely. Briefly, corneoscleral buttons were excised and rinsed in PBS containing 200 U/mL penicillin and 200 μg/mL streptomycin. The endothelial concavity was filled with culture medium containing 1% low melting temperature agarose. The corneas were cultured epithelial side up in MEM medium supplemented with nonessential amino acids (1×), 2 mM […], 200 U/mL penicillin, and 200 μg/mL streptomycin. The next day, they were infected with 1×10^4 plaque forming units (PFU)/cornea of strain KOS HSV-1 for 1 hour, rinsed, and overlaid with fresh medium. Drug treatments were administered at the same concentrations as for cultured cells. For KU-55933 bioavailability assessment, corneas were treated with bleomycin (200 μg/mL) for 1 hour. The epithelial cell layer was collected by scraping to isolate DNA or protein. […] Treatment toxicity was assessed by briefly staining the cornea with fluorescein (1% wt/vol in PBS) and imaging the epithelial defects with 464-nm wavelength blue light (LDP LLC, Carlstadt, N.J.). […]

[2] = system: HSV-1; assay: Ex vivo HSV-1 infection of explanted rabbit corneas, qPCR of viral genome; format: cell-based, HSV-1 (KOS strain); settings: for viral genome replication in corneal epithelium (qPCR): 1×10^4 PFU/cornea, 10 μM
Experimental: (§1) Human corneas were obtained from the Lions Eye Bank of Delaware Valley. Rabbit corneas were excised from intact fresh eyeballs of young (8-12 weeks) albino rabbits (Pel-Freez Biologicals, Rogers, Ark.). Protocol (Alekseev et al., 2012, J Vis Exp 69:e3631) for ex vivo corneal culture, infection, and treatment was followed closely. Briefly, corneoscleral buttons were excised and rinsed in PBS containing 200 U/mL penicillin and 200 μg/mL streptomycin. The endothelial concavity was filled with culture medium containing 1% low melting temperature agarose. The corneas were cultured epithelial side up in MEM medium supplemented with nonessential amino acids (1×), 2 mM […], 200 U/mL penicillin, and 200 μg/mL streptomycin. The next day, they were infected with 1×10^4 plaque forming units (PFU)/cornea of strain KOS HSV-1 for 1 hour, rinsed, and overlaid with fresh medium. Drug treatments were administered at the same concentrations as for cultured cells. For KU-55933 bioavailability assessment, corneas were treated with bleomycin (200 μg/mL) for 1 hour. The epithelial cell layer was collected by scraping to isolate DNA or protein. For immunohistochemistry studies, corneas were flash frozen in optimal cutting temperature (OCT) compound, sectioned, and immunostained using standard protocols. Treatment toxicity was assessed by briefly staining the cornea with fluorescein (1% wt/vol in PBS) and imaging the epithelial defects with 464-nm wavelength blue light (LDP LLC, Carlstadt, N.J.).
(§2) Viral genome replication and transcription were measured by quantitative PCR (qPCR). Total DNA and RNA from infected cells were isolated using the DNeasy Blood & Tissue Kit and the RNeasy Mini Kit, respectively (QIAGEN, Hilden, Germany). RNA was converted to cDNA using qScript (Quanta BioSciences, Gaithersburg, Md.). Real-time qPCR was performed with SYBR Green (Bio-Rad, Hercules, Calif.). Target primers for UL30 (DNA polymerase catalytic subunit) and reference primers for glyceraldehyde 3-phosphate dehydrogenase (GAPDH) were used to measure genome replication. Transcription of the three gene families was measured with primers for RL2 (ICPO), UL30 (DNA polymerase catalytic subunit), and UL44 (gC), with reference primers for the 18S ribosomal RNA (rRNA).
Human corneas were obtained from the Lions Eye Bank of Delaware Valley. Rabbit corneas were excised from intact fresh eyeballs of young (8-12 weeks) albino rabbits (Pel-Freez Biologicals, Rogers, Ark.). The protocol (Alekseev et al., 2012, J. Vis. Exp. e3631) for ex vivo corneal culture and infection was followed, and treatment was administered immediately after infection. Briefly, corneoscleral buttons were excised and rinsed in PBS containing 200 U/ml penicillin and 200 μg/ml streptomycin. The endothelial concavity was filled with culture medium containing 1% low melting temperature agarose. The corneas were cultured epithelial side up in MEM medium supplemented with non-essential amino acids (1×), 2 mM […], 200 U/ml penicillin, and 200 μg/ml streptomycin. The next day, they were infected with 1×10^4 PFU/cornea of strain KOS HSV-1 for 1 hour, rinsed, and overlaid with fresh medium. Drug treatments were administered at the same concentrations as for cultured cells. […]
(§3) Total DNA from infected cells and corneas was isolated using the DNeasy Blood & Tissue Kit (QIAGEN, Hilden, Germany). Real time quantitative PCR was performed with SYBR Green (Bio-Rad, Hercules, Calif.). […]

[3] = system: HSV-1; assay: Ex vivo HSV-1 infection of explanted human corneas, qPCR of viral genome; format: cell-based, HSV-1 (KOS strain); settings: 48 hpi; for viral genome replication in corneal epithelium (qPCR): 1×10^4 PFU/cornea
Experimental: as §1, §2
Human corneas were obtained from the Lions Eye Bank of Delaware Valley. Rabbit corneas were excised from intact fresh eyeballs of young (8-12 weeks) albino rabbits (Pel-Freez Biologicals, Rogers, Ark.). […]
as §3

Row | SMILES | cleaved caspase-3 staining (apoptosis) in corneal epithelium [1] | HSV-1 inhibition in rabbit compared with human corneas ([2]; Chk2 inhibitor II 10 μM, 48 hpi) | HSV-1 growth following the removal of inhibitor ([2]; rabbit corneas, 10 μM for 48 hours, then inhibitor-free medium) | time to which the effect of inhibition was maintained ([2]; rabbit corneas, 10 μM for 48 hours, then inhibitor-free medium for 48 hours, latest time point tested) [hpi] | viral genome replication in corneal epithelium (qPCR) ([2]; rabbit corneas, 48 hpi) | difference in viral genome levels versus positive controls treated with PAA ([3]; human corneas, 10 μM, PAA 400 μg/ml) | viral genome replication in corneal epithelium (qPCR) ([3]; human corneas, 10 μM) | effect on viral genome replication, human compared with rabbit corneas ([3]; KU-55933 10 μM)
1 | NC(=O)c1ccc2[nH]c(-c3ccc(Oc4ccc(Cl)cc4)cc3)nc2c1 [Chk2 inhibitor II, 2-(4-(4-chlorophenoxy)phenyl)-1H-benzimidazole-5-carboxamide] | abrogated | slightly less potent | resume normal growth | ≥ 96 | did not support productive infection | no statistical significance | did not support productive infection | 
2 | O=c1cc(-c2cccc3c2Sc2ccccc2S3)oc(N2CCOCC2)c1 [KU-55933, 2-(morpholin-4-yl)-6-(thianthren-1-yl)-pyran-4-one] | reduction |  |  |  | greatly reduced |  | greatly reduced | more pronounced in human corneas
